Results reported in ChEMBL document CHEMBL4421722, “Inhibitors of protein prenyltransferases” (2013).

Legend:
[1] = organism: Rattus norvegicus; test: Inhibition of rat recombinant geranylgeranyltransferase type I expressed in Escherichia coli assessed as residual enzyme activity for geranylgeranylation of K-Ras4B at 50 uM incubated for 30 mins in presence of [3H]GGPP by scintillation counting assay relative to control
[2] = organism: Rattus norvegicus; test: Inhibition of rat recombinant geranylgeranyltransferase type I expressed in Escherichia coli assessed as residual enzyme activity for geranylgeranylation of RhoA at 50 uM incubated for 30 mins in presence of [3H]GGPP by scintillation counting assay relative to control

| SMILES | Activity [1] [%] | Activity [2] [%] |
| --- | --- | --- |
| Cc1ccc(S(=O)(=O)N2[C@@H](c3cccc(Cl)c3)C(C(=O)O)=CC[C@H]2c2cccc(Cl)c2)cc1 | 43.7 to 43.8 | 6 |
| Cc1ccccc1S(=O)(=O)N1C[C@@H](C(=O)O)[C@H](Sc2ccc(Cl)cc2)C[C@H]1c1ccc(Cl)cc1 | 83.5 | 13 |
| Cc1ccc(S(=O)(=O)N2C[C@@H](C(=O)O)[C@H](SCCC(C)C)C[C@H]2c2cccc(Cl)c2)cc1 | 25.1 to 26 | 12 |
| Cc1ccc(S(=O)(=O)N2C[C@@H](C(=O)O)[C@H](SCC(C)C)C[C@H]2c2ccccc2)cc1 | 26 to 85.1 | 10.7 |
| CCOc1ccc([C@@H]2C[C@@H](Sc3ccc(Cl)cc3)[C@H](C(=O)O)CN2S(=O)(=O)c2ccc(C)cc2)cc1 | 72.4 | 2.6 |
| Cc1ccc([C@@H]2C[C@@H](SCCc3ccccc3)[C@H](C(=O)O)CN2S(=O)(=O)c2ccc(C)cc2)cc1 | 22.6 to 35.4 | 12.4 |
| C=CCS[C@H]1[C@@H](C(=O)O)[C@H](c2ccc(C(C)C)cc2)N(S(=O)(=O)c2ccc(C)cc2)[C@@H]1CC1CCCC1 | 31.7 | 6.1 |
| CCCCCS[C@@H]1C[C@@H](c2cccc(Br)c2)N(S(=O)(=O)c2ccc(C)cc2)C[C@H]1C(=O)O | 28.5 to 85.1 | 10.8 |
| C=CCS[C@H]1[C@@H](C(=O)O)[C@H](c2ccc(Br)cc2)N(S(=O)(=O)c2ccc(C)cc2)[C@@H]1CCCCCC | 15.5 | 5.5 |
| Cc1ccc([C@@H]2C[C@@H](SCCc3ccccc3)[C@H](C(=O)O)CN2S(=O)(=O)c2ccccc2C)cc1 | 10.2 to 13.8 | 5.3 |
| Cc1ccc(S(=O)(=O)N2C[C@@H](C(=O)O)[C@H](Sc3ccccc3)C[C@H]2c2cccc(Br)c2)cc1 |  | 2.9 |
| COc1cccc([C@@H]2C[C@@H](SCCc3ccccc3)[C@H](C(=O)O)CN2S(=O)(=O)c2ccc(C)cc2)c1 | 20.8 to 24.2 | 11.4 |
| Cc1ccc(S(=O)(=O)N2C[C@@H](C(=O)O)[C@H](Sc3ccc(Cl)cc3)C[C@H]2c2ccc(Cl)cc2)cc1 | 52.1 | 4.9 |
| C=CCS[C@@H]1C[C@@H](c2ccc(Cl)cc2)N(S(=O)(=O)c2ccccc2C)C[C@H]1C(=O)O | 16.4 to 17.8 | 9.4 |
| Cc1ccc(S(=O)(=O)N2[C@@H](c3cccc(Cl)c3)C(C(=O)O)=CC[C@H]2c2cccc(Br)c2)cc1 | 9.8 to 24.4 | 7.9 |
| Cc1ccc(S(=O)(=O)N2C[C@@H](C(=O)O)[C@H](Sc3ccc(Cl)cc3)C[C@H]2c2cccc(Cl)c2)cc1 | 111 | 6 |
| Cc1ccccc1S(=O)(=O)N1C[C@@H](C(=O)O)[C@H](SCc2ccc(Cl)cc2)C[C@H]1c1ccc(Cl)cc1 | 21.3 to 24.5 | 13 |
| Cc1ccccc1S(=O)(=O)N1C[C@@H](C(=O)O)[C@H](SCc2ccccc2)C[C@H]1c1ccc(Cl)cc1 | 8.7 to 12 | 7.8 |
| Cc1ccc([C@@H]2CC=C(C(=O)O)[C@H](c3cccc(Br)c3)N2S(=O)(=O)c2ccc(Cl)cc2)cc1 | 8.4 to 19.9 | 7.4 |
| CCCCCS[C@H]1[C@@H](C(=O)O)[C@H](c2cccc(F)c2)N(S(=O)(=O)c2ccc(C)cc2)[C@@H]1CCCC | 23.5 | 7.1 |
| Cc1ccc(S(=O)(=O)N2C[C@@H](C(=O)O)[C@H](SCc3ccccc3)C[C@H]2c2ccc(Cl)cc2)cc1 | 11.5 to 15.8 | 4.6 |
| Cc1ccc(S(=O)(=O)N2[C@@H](c3ccc(Br)cc3)C(C(=O)O)=CC[C@H]2c2ccc(Cl)c(Cl)c2)cc1 | 18.7 to 22.8 | 11.3 |
| Cc1ccc(S(=O)(=O)N2C[C@@H](C(=O)O)[C@H](SCc3ccccc3)C[C@H]2c2cccc(Cl)c2)cc1 | 11.5 to 18.1 | 8.3 |

| SMILES | Activity [1] [%] | Activity [2] [%] |
| --- | --- | --- |
| CCOc1ccc([C@@H]2C[C@@H](SCCc3ccccc3)[C@H](C(=O)O)CN2S(=O)(=O)c2ccc(C)cc2)cc1 | 24.6 to 37.2 | 14.5 |
| CCCC[C@@H]1[C@@H](Sc2ccc(OC)cc2)[C@@H](C(=O)O)[C@H](c2cccc(F)c2)N1S(=O)(=O)c1ccc(C)cc1 | 27.4 | 3.5 |
| Cc1ccc([C@@H]2C[C@@H](Sc3ccccc3)[C@H](C(=O)O)CN2S(=O)(=O)c2ccccc2C)cc1 | 69.5 | 17.5 |
| Cc1ccccc1S(=O)(=O)N1[C@@H](c2ccc(Cl)cc2)C(C(=O)O)=C[C@H]1CC1CCCC1 | 23.7 | 9.1 |
| Cc1ccccc1S(=O)(=O)N1[C@H](CC2CCCC2)[C@@H](SCCC(=O)OC(C)(C)C)[C@@H](C(=O)O)[C@@H]1c1ccc(Cl)cc1 | 10 | 7.8 |
| C=CCS[C@@H]1C[C@@H](c2ccc(OC)cc2)N(S(=O)(=O)c2ccc(C)cc2)C[C@H]1C(=O)O | 108 |  |
| CCCCCS[C@@H]1C[C@@H](c2ccc(OC)cc2)N(S(=O)(=O)c2ccccc2)C[C@H]1C(=O)O | 94.8 |  |
| CC(C)(C)c1ccc([C@H]2C(C(=O)O)=CC[C@@H](c3ccc(Cl)cc3)N2S(C)(=O)=O)cc1 | 60.4 |  |
| Cc1ccc(S(=O)(=O)N2C[C@@H](C(=O)O)[C@H](SC3CCCC3)C[C@H]2c2ccccc2F)cc1 | 93.4 |  |
| Cc1ccc(S(=O)(=O)N2[C@@H](c3ccc(C(C)(C)C)cc3)C(C(=O)O)=CC[C@H]2c2cccc(F)c2)cc1 | 77.2 |  |
| CCCCCCS[C@@H]1C[C@@H](c2ccc(OC)c(OC)c2)N(S(=O)(=O)c2ccc(C)cc2)C[C@H]1C(=O)O | 97.2 |  |
| CCS[C@@H]1C[C@@H](c2ccccc2)N(S(=O)(=O)c2ccc(C)cc2)C[C@H]1C(=O)O | 94.8 |  |
| CCS[C@@H]1C[C@@H](c2cccc(Br)c2)N(S(=O)(=O)c2ccc(C)cc2)C[C@H]1C(=O)O | 82.7 |  |
| COc1cccc([C@@H]2CC=C(C(=O)O)[C@H](c3cccc(F)c3)N2S(=O)(=O)c2ccc(C)cc2)c1 | 82.9 |  |
| Cc1cccc([C@H]2C(C(=O)O)=CC[C@@H](c3ccc(Cl)cc3)N2S(=O)(=O)c2ccc(Cl)cc2)c1 | 89.5 |  |
| Cc1ccc(S(=O)(=O)N2[C@@H](c3cccc(Br)c3)C(C(=O)O)=CC[C@H]2c2ccccc2F)cc1 | 71.2 |  |
| Cc1ccc(S(=O)(=O)N2C[C@@H](C(=O)O)[C@H](SCc3ccc(Cl)cc3)C[C@H]2c2ccccc2F)cc1 | 61.4 |  |
| COc1cc([C@@H]2CC=C(C(C)=O)CN2S(=O)(=O)c2ccc(C)cc2)cc(OC)c1OC | 92.3 |  |
| Cc1ccc(S(=O)(=O)N2[C@@H](c3cccc(F)c3)C(C(=O)O)=CC[C@H]2c2ccccc2F)cc1 | 75 |  |
| Cc1ccc(S(=O)(=O)N2[C@@H](c3ccc(F)cc3)C(C(=O)O)=CC[C@H]2c2cccc(Cl)c2)cc1 | 60.2 |  |
| CC(=O)C1=CC[C@@H](c2ccccc2)N(S(=O)(=O)c2ccc(C)cc2)C1 | 98.8 |  |
| Cc1ccc(S(=O)(=O)N2[C@@H](c3ccc(Br)cc3)C(C(=O)O)=CC[C@H]2c2cccc(Br)c2)cc1 | 57.9 |  |
| Cc1ccc(S(=O)(=O)N2C[C@@H](C(=O)O)[C@H](SC3CCCC3)C[C@H]2c2ccc(Cl)cc2)cc1 | 94.7 |  |

| SMILES | Activity [1] [%] | Activity [2] [%] |
| --- | --- | --- |
| COc1ccc([C@@H]2CC=C(C(=O)O)[C@H](c3cccc(F)c3)N2S(=O)(=O)c2ccc(C)cc2)cc1 | 87.5 |  |
| Cc1ccc([C@H]2C(C(=O)O)=CC[C@@H](c3ccc(C)cc3)N2S(=O)(=O)c2ccc(Cl)cc2)cc1 | 53 |  |
| COc1cc([C@@H]2C[C@@H](SCc3ccc(C(C)(C)C)cc3)[C@H](C(=O)O)CN2S(=O)(=O)c2ccc(C)cc2)cc(OC)c1OC | 71.3 |  |
| Cc1ccccc1S(=O)(=O)N1C[C@@H](C(=O)O)[C@H](SCc2ccc(C(C)(C)C)cc2)C[C@H]1c1ccc(Cl)cc1 | 43.1 |  |
| COc1ccc([C@@H]2CC=C(C(=O)O)[C@H](c3ccc(F)cc3)N2S(=O)(=O)c2ccc(C)cc2)cc1OC | 69.8 |  |
| COc1ccc(S[C@@H]2C[C@@H](c3ccc(OC)cc3)N(S(=O)(=O)c3ccc(Cl)cc3)C[C@H]2C(=O)O)cc1 | 80.8 |  |
| Cc1ccc([C@@H]2CC=C(C(=O)O)[C@H](c3ccc(Cl)cc3)N2S(=O)(=O)c2ccc(Cl)cc2)cc1 | 63.8 |  |
| Cc1ccc([C@@H]2CC=C(C(=O)O)[C@H](c3ccc(Br)cc3)N2S(=O)(=O)c2ccccc2C)cc1 | 82 |  |
| COc1ccc([C@@H]2C[C@@H](SCC(C)C)[C@H](C(=O)O)CN2S(=O)(=O)c2ccc(Cl)cc2)cc1 | 75.6 |  |
| COc1ccc(S[C@@H]2C[C@@H](c3ccccc3F)N(S(=O)(=O)c3ccc(C)cc3)C[C@H]2C(=O)O)cc1 | 100 |  |
| Cc1ccc([C@@H]2CC=C(C(=O)O)[C@H](c3cccc(Br)c3)N2S(=O)(=O)c2ccc(C)cc2)cc1 | 75.6 |  |
| Cc1ccc(S(=O)(=O)N2[C@@H](c3ccc(C(C)(C)C)cc3)C(C(=O)O)=CC[C@H]2c2cccs2)cc1 | 68.1 |  |
| Cc1ccc([C@@H]2C[C@@H](SCC(C)C)[C@H](C(=O)O)CN2S(=O)(=O)c2ccccc2C)cc1 | 78.3 |  |
| Cc1ccc(S[C@@H]2C[C@@H](c3ccc(C)cc3)N(S(=O)(=O)c3ccc(C)cc3)C[C@H]2C(=O)O)cc1 | 62.4 |  |
| CCCCS[C@@H]1C[C@@H](c2ccc(OC)cc2)N(S(=O)(=O)c2ccc(C)cc2)C[C@H]1C(=O)O | 74.5 |  |
| COc1ccc([C@@H]2C[C@@H](Sc3ccc(Cl)cc3)[C@H](C(=O)O)CN2S(=O)(=O)c2ccc(C)cc2)cc1 | 55.3 |  |
| Cc1ccc(S(=O)(=O)N2C[C@@H](C(=O)O)[C@H](SCCC(C)C)C[C@H]2c2ccc(Cl)cc2)cc1 | 39.4 |  |
| Cc1ccc(S(=O)(=O)N2[C@@H](c3ccc(Cl)cc3)C(C(=O)O)=CC[C@H]2c2ccc(C#N)cc2)cc1 | 73.1 |  |
| Cc1ccc(S(=O)(=O)N2[C@@H](c3cccc(C)c3)C(C(=O)O)=CC[C@H]2c2cccc(Cl)c2)cc1 | 46.9 |  |
| Cc1ccc([C@H]2C(C(=O)O)=CC[C@@H](c3ccc(C(C)C)cc3)N2S(=O)(=O)c2ccc(C)cc2)cc1 | 63.7 |  |
| C=CCS[C@@H]1C[C@@H](c2ccccc2F)N(S(=O)(=O)c2ccc(C)cc2)C[C@H]1C(=O)O | 53.1 |  |
| Cc1ccc(S[C@@H]2C[C@@H](c3ccc4c(c3)OCO4)N(S(=O)(=O)c3ccc(C)cc3)C[C@H]2C(=O)O)cc1 | 77.8 |  |
